# Several values for one entry are separate records, joined by “and”; a condition that tells them apart may be missing. Equal values may be shown once.
# System: HCV replicon
# Format: cell-based
row,SMILES,IC50
1,CC(C)OC(=O)Nc1ccc(-c2c(C#N)c3ccc(OCCN4CCCC4)cc3n2C2CCC2)cc1 [Compound 1142],< 0.5 µM
2,CCNC(=O)Nc1ccc(-c2c(C#N)c3ccc(OCC)cc3n2C2CCCC2)cc1 [Compound 1143],< 0.5 µM
3,CCCNC(=O)Nc1ccc(-c2c(C#N)c3ccc(OCC)cc3n2C2CCCC2)cc1 [Compound 1144],< 0.5 µM
4,CCOc1ccc2c(C#N)c(-c3ccc(NC(=O)OC4CCCC4)nc3)n(C3CCC3)c2c1 [Compound 1145],0.5 to 2 µM
5,CCOc1ccc2c(C#N)c(-c3ccc(NC(=O)OCC4CC4)cc3)n(C3CCC3)c2c1 [Compound 1146],< 0.5 µM
6,CCOC(=O)Nc1ccc(-c2c(C#N)c3ccc(OCC)cc3n2CC2CC2)cc1 [Compound 1148],< 0.5 µM
7,CCCOC(=O)Nc1ccc(-c2c(C#N)c3ccc(OCC)cc3n2CC2CC2)cc1 [Compound 1149],< 0.5 µM
8,CCOc1ccc2c(C#N)c(-c3ccc(NC(=O)OC(C)C)cc3)n(CC3CC3)c2c1 [Compound 1150],< 0.5 µM
9,CCOc1ccc2c(C#N)c(-c3ccc(NC(=O)OCC(C)C)cc3)n(CC3CC3)c2c1 [Compound 1151],< 0.5 µM
10,CCOc1ccc2c(C#N)c(-c3ccc(NC(=O)OCC(C)(C)C)cc3)n(CC3CC3)c2c1 [Compound 1152],< 0.5 µM
11,CCOc1ccc2c(C#N)c(-c3ccc(NC(=O)OCc4ccccc4)cc3)n(CC3CC3)c2c1 [Compound 1153],< 0.5 µM
12,CCOc1ccc2c(C#N)c(-c3ccc(NC(=O)OCc4ccccc4)cc3)n(CC3CC3)c2c1 [Compound 1155],0.5 to 2 µM
13,CCNC(=O)Nc1ccc(-c2c(C#N)c3ccc(OCC)cc3n2CC2CC2)cc1 [Compound 1156],< 0.5 µM
14,CCOc1ccc2c(C#N)c(-c3ccc(NC(=O)OCC4CCC4)cc3)n(C3CCC3)c2c1 [Compound 1158],< 0.5 µM
15,CCOc1ccc2c(C#N)c(-c3ccc(NC(=O)NC(C)CC)cc3)n(C3CCC3)c2c1 (centres unmarked) [Compound 1159],< 0.5 µM
16,CCS(=O)(=O)Nc1ccc(-c2c(C#N)c3cc(OC)ccc3n2C2CCC2)cc1 [Compound 1161],< 0.5 µM and 0.5 to 2 µM

row,SMILES,IC50
1,CCCNC(=O)Nc1ccc(-c2c(C#N)c3cc(OC)ccc3n2C2CCC2)cc1 [Compound 1162],0.5 to 2 µM
2,COc1ccc2c(c1)c(C#N)c(-c1ccc(NC(=O)NC(C)C)cc1)n2C1CCC1 [Compound 1163],0.5 to 2 µM
3,CCCCNC(=O)Nc1ccc(-c2c(C#N)c3cc(OC)ccc3n2C2CCC2)cc1 [Compound 1164],< 0.5 µM and > 2 µM
4,COc1ccc2c(c1)c(C#N)c(-c1ccc(NC(=O)NC3CCCC3)cc1)n2C1CCC1 [Compound 1165],0.5 to 2 µM
5,CCOc1ccc2c(C#N)c(-c3ccc(NC(=O)OC4CCC4)cc3)n(C3CCC3)c2c1 [Compound 1167],< 0.5 µM
6,CCOc1ccc2c(C#N)c(-c3ccc(NC(=O)NC4CCC4)cc3)n(C3CCC3)c2c1 [Compound 1168],< 0.5 µM
7,CCOc1ccc2c(C#N)c(-c3ccc(NC(=O)OC(C)C)cc3)n(CC3CCC3)c2c1 [Compound 1169],< 0.5 µM
8,CCCS(=O)(=O)Nc1ccc(-c2c(C#N)c3ccc(OCC)cc3n2CC2CCC2)cc1 [Compound 1170],0.5 to 2 µM
9,CCOc1ccc2c(C#N)c(-c3ccc(NC(=O)NC(C)C)cc3)n(CC3CCC3)c2c1 [Compound 1171],< 0.5 µM
10,CCOc1ccc2c(C#N)c(-c3ccc(NC(=O)NC4CCCC4)cc3)n(CC3CC3)c2c1 [Compound 1173],< 0.5 µM
11,CC(C)OC(=O)Nc1ccc(-c2c(C#N)c3ccc(OCCF)cc3n2C2CCC2)cc1 [Compound 1174],< 0.5 µM
12,CCCS(=O)(=O)Nc1ccc(-c2c(C#N)c3ccc(OCCF)cc3n2C2CCC2)cc1 [Compound 1175],< 0.5 µM
13,CCOC(=O)Nc1ccc(-c2c(C#N)c3cc(OC)ccc3n2C2CCC2)cc1 [Compound 1176],0.5 to 2 µM
14,CCCOC(=O)Nc1ccc(-c2c(C#N)c3cc(OC)ccc3n2C2CCC2)cc1 [Compound 1177],< 0.5 µM and 0.5 to 2 µM
15,COc1ccc2c(c1)c(C#N)c(-c1ccc(NC(=O)OCC(C)C)cc1)n2C1CCC1 [Compound 1178],< 0.5 µM
16,C=CCOC(=O)Nc1ccc(-c2c(C#N)c3cc(OC)ccc3n2C2CCC2)cc1 [Compound 1180],0.5 to 2 µM
